Experimental data from EP0620225B1, “Cephalosporin derivatives” (Basilea Pharmaceutica AG, priority 1993, dated 1994).
≈ marks a conversion by molar mass, not a printed value. Read-outs that look alike come from different tables or passages of the source. Blank lines part the entries; values can stand above or below the compound they belong to.

How the values were obtained:
Acinetobacter sp.51-156 = experiment: Antibacterial spectrum (MIC), agar dilution; format: cell-based
Experimental: (§1) In vitro activity was determined by minimum inhibitory concentration in a microorganism spectum by the agar dilution method in Mueller Hinton agar.

C.freundii 43 = experiment: Antibacterial spectrum (MIC), agar dilution; format: cell-based
Experimental: as §1

C.freundii 902 = experiment: Antibacterial spectrum (MIC), agar dilution; format: cell-based
Experimental: as §1

E.cloacae 908R = experiment: Antibacterial spectrum (MIC), agar dilution; format: cell-based
Experimental: as §1

E.cloacae 908SSi = experiment: Antibacterial spectrum (MIC), agar dilution; format: cell-based
Experimental: as §1

E.coli 25922 = experiment: Antibacterial spectrum (MIC), agar dilution; format: cell-based
Experimental: as §1

E.faecalis 6 = experiment: Antibacterial spectrum (MIC), agar dilution; format: cell-based
Experimental: as §1

H.influenzae 1 = experiment: Antibacterial spectrum (MIC), agar dilution; format: cell-based
Experimental: as §1

K.pneumoniae 418 = experiment: Antibacterial spectrum (MIC), agar dilution; format: cell-based
Experimental: as §1

L.monocytogenes BK23 = experiment: Antibacterial spectrum (MIC), agar dilution; format: cell-based
Experimental: as §1

M.catarrhalis RA21 = experiment: Antibacterial spectrum (MIC), agar dilution; format: cell-based
Experimental: as §1

M.morganii 6H-137 = experiment: Antibacterial spectrum (MIC), agar dilution; format: cell-based
Experimental: as §1

N.meningitidis 69480 = experiment: Antibacterial spectrum (MIC), agar dilution; format: cell-based
Experimental: as §1

P.aeruginosa 27853 = experiment: Antibacterial spectrum (MIC), agar dilution; format: cell-based
Experimental: as §1

P.mirabilis 2117 = experiment: Antibacterial spectrum (MIC), agar dilution; format: cell-based
Experimental: as §1

P.vulgaris 1028 = experiment: Antibacterial spectrum (MIC), agar dilution; format: cell-based
Experimental: as §1

S.agalactiae QK44 = experiment: Antibacterial spectrum (MIC), agar dilution; format: cell-based
Experimental: as §1

S.aureus 6538 = experiment: Antibacterial spectrum (MIC), agar dilution; format: cell-based
Experimental: as §1

S.aureus 734 MRSA = experiment: Antibacterial spectrum (MIC), agar dilution; format: cell-based
Experimental: as §1

S.marcescens 69438 = experiment: Antibacterial spectrum (MIC), agar dilution; format: cell-based
Experimental: as §1

S.pneumoniae Q19 = experiment: Antibacterial spectrum (MIC), agar dilution; format: cell-based
Experimental: as §1

S.pyogenes B15 = experiment: Antibacterial spectrum (MIC), agar dilution; format: cell-based
Experimental: as §1

S.viridans group 016 = experiment: Antibacterial spectrum (MIC), agar dilution; format: cell-based
Experimental: as §1

X.maltophilia 1AC739 = experiment: Antibacterial spectrum (MIC), agar dilution; format: cell-based
Experimental: as §1

S.aureus MSSA = experiment: In vitro activity against selected species (MIC50, MIC90, range); format: cell-based; conditions: Staphylococcus aureus, medium MHB (Mueller Hinton Broth)
S.pneumoniae PEN-R = experiment: as above; format: cell-based; conditions: Streptococcus pneumoniae; for MIC: MIC range
S.viridans group = experiment: as above; format: cell-based; conditions: Streptococcus viridans
E.faecalis [1] = experiment: as above; format: cell-based; conditions: Enterococcus faecalis, medium MHA
Experimental: as §1

S.aureus MRSA = experiment: as above; format: cell-based; conditions: Staphylococcus aureus, medium MHA (Mueller Hinton Agar) +NaCl
Experimental: as §1

E.faecium = experiment: In vitro activity against selected species (MIC50, range); format: cell-based; conditions: Enterococcus faecium, medium MHA
Experimental: as §1

M.catarrhalis = experiment: In vitro activity against selected species (MIC50, MIC90, range); format: cell-based; conditions: Moraxella catarrhalis, medium IsoB
Escherichia coli 25922 = experiment: Efficacy against systemic infections (septicemia) in mice; format: in vivo; conditions: 96 h, survival day 4
Experimental: (§2) Septicemia was induced in outbred Swiss albino mice (Jbm MoRo [specific pathogen free]; weight 16 to 20 g, Biomedical Research Laboratories, Füllinsdorf, Switzerland). Mice were infected by intraperitoneal injection of diluted overnight cultures of the test organisms. Bacterial challenge doses were 4-10 times the number of organisms required to kill 50% of untreated animals within 48 h. The test compounds were administered p.o. or s.c. 1 and 3 h after the bacterial challenge. To treat the infection with Pseudomonas aeruginosa BA an additional dose was given 5 h after challenge. Control and treatment groups at each dose were composed of five mice each. The 50% effective dose (ED50, in milligrams per kilogram) was calculated by probit analysis as described by Finney (Finney, D.J. 1978, Statistical method in biological assay, 3rd ed. Charles Griffin & Co., Ltd., London), from the survival rates on day 4 after infection.

S.aureus Smith = experiment: as above; format: in vivo; conditions: Staphylococcus aureus, 96 h, sc 1 and 3 h after challenge, survival day 4
Experimental: as §2

E.faecalis [2] = experiment: In vitro activity against selected species (MIC50, MIC90, range); format: cell-based; conditions: Enterococcus faecalis, medium IsoB
B.fragilis ATCC25285 = experiment: Antibacterial spectrum (MIC), agar dilution; format: cell-based
Experimental: as §1

C.difficile ZH1 = experiment: Antibacterial spectrum (MIC), agar dilution; format: cell-based
Experimental: as §1

P.asaccharolyticus 29743 = experiment: Antibacterial spectrum (MIC), agar dilution; format: cell-based
Experimental: as §1

[3] = Citrobacter freundii, read-out: MIC
[4] = Enterobacter cloacae, read-out: MIC
[5] = Staphylococcus aureus, read-out: MIC
[6] = medium IsoB (Isosensitest Broth)

MIC (Acinetobacter sp.51-156; SP.51156, read-out: MIC): 32 µg/mL (≈ 56.1 µM)
MIC (C.freundii 43; [3]): 8 µg/mL (≈ 14 µM)
MIC (C.freundii 902; [3]): 0.25 µg/mL (≈ 0.438 µM)
MIC (E.cloacae 908R; [4]): 32 µg/mL (≈ 56.1 µM)
MIC (E.cloacae 908SSi; [4]): 0.5 µg/mL (≈ 0.876 µM)
MIC (E.coli 25922; Escherichia coli, read-out: MIC): 0.12 µg/mL (≈ 0.21 µM)
MIC (E.faecalis 6; Enterococcus faecalis, read-out: MIC): 0.25 µg/mL (≈ 0.438 µM)
MIC (H.influenzae 1; Haemophilus influenzae, read-out: MIC): 0.25 µg/mL (≈ 0.438 µM)
MIC (K.pneumoniae 418; Klebsiella pneumoniae, read-out: MIC): 0.12 µg/mL (≈ 0.21 µM)
MIC (L.monocytogenes BK23; Listeria monocytogenes, read-out: MIC): 2 µg/mL (≈ 3.51 µM)
MIC (M.catarrhalis RA21; Moraxella catarrhalis, read-out: MIC): > 16 µg/mL
MIC (M.morganii 6H-137; Morganella morganii, 6H137, read-out: MIC): ≤ 0.06 µg/mL
MIC (N.meningitidis 69480; Neisseria meningitidis, read-out: MIC): ≤ 0.06 µg/mL
MIC (P.aeruginosa 27853; Pseudomonas aeruginosa, read-out: MIC): > 32 µg/mL
MIC (P.mirabilis 2117; Proteus mirabilis, read-out: MIC): 0.12 µg/mL (≈ 0.21 µM)
MIC (P.vulgaris 1028; Proteus vulgaris, read-out: MIC): 2 µg/mL (≈ 3.51 µM)
MIC (S.agalactiae QK44; Streptococcus agalactiae, read-out: MIC): 0.25 µg/mL (≈ 0.438 µM)
MIC (S.aureus 6538; [5]): 0.5 µg/mL (≈ 0.876 µM)
MIC (S.aureus 734 MRSA; [5]): 8 µg/mL (≈ 14 µM)
MIC (S.marcescens 69438; Serratia marcescens, read-out: MIC): 1 µg/mL (≈ 1.75 µM)
MIC (S.pneumoniae Q19; Streptococcus pneumoniae, read-out: MIC): ≤ 0.06 µg/mL
MIC (S.pyogenes B15; Streptococcus pyogenes, read-out: MIC): ≤ 0.06 µg/mL
MIC (S.viridans group 016; Streptococcus viridans, read-out: MIC): 0.5 µg/mL (≈ 0.876 µM)
MIC (X.maltophilia 1AC739; Stenotrophomonas maltophilia, read-out: MIC): > 32 µg/mL
MIC (S.aureus MSSA; MIC range): 0.5 to 1 µg/mL (≈ 0.876 to 1.75 µM)
MIC50 (S.aureus MSSA): 0.5 µg/mL (≈ 0.876 µM)
MIC90 (S.aureus MSSA): 0.5 µg/mL (≈ 0.876 µM)
MIC (S.pneumoniae PEN-R; [6]): 0.12 to 0.25 µg/mL (≈ 0.21 to 0.438 µM)
MIC (S.pneumoniae PEN-R; medium IsoB + 20% serum): 0.12 to 0.5 µg/mL
MIC50 (S.pneumoniae PEN-R; [6]): ≤ 0.12 µg/mL
MIC90 (S.pneumoniae PEN-R; [6]): ≤ 0.12 µg/mL
MIC50 (S.pneumoniae PEN-R; medium IsoB + 20% serum): 0.25 µg/mL
MIC50 (S.viridans group): 0.5 µg/mL (≈ 0.876 µM)
MIC90 (S.viridans group): 2 µg/mL (≈ 3.51 µM)
MIC (S.viridans group; MIC range): 0.12 to 4 µg/mL (≈ 0.21 to 7.01 µM)
MIC (E.faecalis [1]; MIC range): 0.5 to 1 µg/mL (≈ 0.876 to 1.75 µM)
MIC50 (E.faecalis [1]): ≤ 0.5 µg/mL
MIC90 (E.faecalis [1]): 1 µg/mL (≈ 1.75 µM)
MIC (S.aureus MRSA; MIC range): 16 to 32 µg/mL (≈ 28 to 56.1 µM)
MIC50 (S.aureus MRSA): 16 µg/mL (≈ 28 µM)
MIC90 (S.aureus MRSA): 32 µg/mL (≈ 56.1 µM)
MIC (E.faecium; MIC range): 0.1 to 16 µg/mL (≈ 0.175 to 28 µM)
MIC50 (E.faecium): 2 µg/mL (≈ 3.51 µM)
MIC (M.catarrhalis; MIC range): 1 to 64 µg/mL (≈ 1.75 to 112 µM)
MIC50 (M.catarrhalis): 8 µg/mL (≈ 14 µM)
MIC90 (M.catarrhalis): 16 µg/mL (≈ 28 µM)
MIC (E.faecalis [2]; MIC range): 0.25 to 1 µg/mL (≈ 0.438 to 1.75 µM)
MIC50 (E.faecalis [2]): 0.5 µg/mL (≈ 0.876 µM)
MIC90 (E.faecalis [2]): 1 µg/mL (≈ 1.75 µM)
Compound: COc1ccc(N2CC/C(=C\C3=C(C(=O)O)N4C(=O)[C@@H](NC(=O)/C(=N\O)c5csc(N)n5)[C@H]4SC3)C2=O)cc1 [I]
ED50 (Escherichia coli 25922; Escherichia coli 25922, po (orally) 1 and 3 h after challenge): 4.5 mg/kg
ED50 (Escherichia coli 25922; Escherichia coli, E.coli 25922, sc 1 and 3 h after challenge): < 0.3 mg/kg
ED50 (S.aureus Smith): < 1 mg/kg

MIC (Acinetobacter sp.51-156): 32 µg/mL (≈ 59.1 µM)
MIC (B.fragilis ATCC25285): 4 µg/mL (≈ 7.39 µM)
MIC (C.difficile ZH1): 16 µg/mL (≈ 29.5 µM)
MIC (C.freundii 43): 2 µg/mL (≈ 3.69 µM)
MIC (C.freundii 902): ≤0.12 µg/mL
MIC (E.cloacae 908R): 4 µg/mL (≈ 7.39 µM)
MIC (E.cloacae 908SSi): ≤0.12 µg/mL
MIC (E.coli 25922): ≤0.12 µg/mL
MIC (E.faecalis 6): 1 µg/mL (≈ 1.85 µM)
MIC (H.influenzae 1): 0.25 µg/mL (≈ 0.462 µM)
MIC (K.pneumoniae 418): ≤0.12 µg/mL
MIC (L.monocytogenes BK23): 8 µg/mL (≈ 14.8 µM)
MIC (M.catarrhalis RA21): >16 µg/mL
MIC (M.morganii 6H-137): ≤0.12 µg/mL
MIC (N.meningitidis 69480): ≤0.06 µg/mL
MIC (P.aeruginosa 27853): 16 µg/mL (≈ 29.5 µM)
MIC (P.asaccharolyticus 29743): ≤0.25 µg/mL
MIC (P.mirabilis 2117): ≤0.12 µg/mL
MIC (P.vulgaris 1028): 4 µg/mL (≈ 7.39 µM)
MIC (S.agalactiae QK44): 0.5 µg/mL (≈ 0.923 µM)
MIC (S.aureus 6538): 1 µg/mL (≈ 1.85 µM)
MIC (S.aureus 734 MRSA): 8 µg/mL (≈ 14.8 µM)
MIC (S.marcescens 69438): 0.5 µg/mL (≈ 0.923 µM)
MIC (S.pneumoniae Q19): 0.12 µg/mL (≈ 0.222 µM)
MIC (S.pyogenes B15): ≤0.06 µg/mL
MIC (S.viridans group 016): 1 µg/mL (≈ 1.85 µM)
MIC (X.maltophilia 1AC739): >32 µg/mL
Compound: Nc1nc(/C(=N/O)C(=O)N[C@@H]2C(=O)N3C(C(=O)O)=C(/C=C4\CCN(c5cccnc5)C4=O)CS[C@H]23)cs1 [K, [6R-[3(E),6α,7β(Z)]]-7-[[(2-Amino-4-thiazolyl)(hydroxyimino)acetyl]-amino]-8-oxo-3-[[2-oxo-1-(3-pyridinyl)-3-pyrrolidinylidene]methyl]-5-thia-1-azabicyclo[4.2.0]oct-2-ene-2-carboxylic acid]
